Test results reported in patent US20240199613A1 (TAKEDA PHARMACEUTICAL COMPANY LIMITED, priority 2021, published 2024).

The compounds below were run against human activated kallikrein enzyme (Homo sapiens, UniProt P03952) (assay: Inhibition of activated plasma kallikrein, fluorogenic peptide substrate (PFR-AMC) assay, 500 pM enzyme format). Details: 500 pM activated kallikrein, 300 uM PFR-AMC, 30 min preincubation, 10 min reaction, room temperature; read-out: Primary Dose Response Assay: Average EC50.
Format: biochemical
Method: Compounds were evaluated for inhibition of the human activated kallikrein enzyme in two formats of an assay employing a fluorogenic peptide substrate. In one assay format, the concentrations of reagents were as follows: 20 mM Tris pH 7.5, 1 mM EDTA, 150 mM sodium chloride, 0.1% PEG-400, 0.1% Triton X-100, 500 pM activated kallikrein enzyme, 300 uM Pro-Phe-Arg-7-amido-4-methylcoumarin (PFR-AMC) substrate. Prior to reaction initiation with substrate, enzyme and inhibitors were preincubated for 30 min at room temperature. After initiation with substrate, reactions were incubated for 10 min at room temperature and fluorescence emission at 460 nm from 380 nm excitation measured with a microplate reader. In another assay format, the concentrations of reagents were as follows: 20 mM Tris pH 7.5, 1 mM EDTA, 150 mM sodium chloride, 0.1% PEG-400, 0.1% Triton X-100, 5 pM activated kallikrein enzyme, 300 uM PFR-AMC substrate. Prior to reaction initiation with substrate, enzyme and inhibitors were preincubated for 30 min at room temperature. After initiation with substrate, reactions were incubated for 18 hr at room temperature and fluorescence emission at 460 nm from 380 nm excitation measured with a microplate reader.
Table 6 provides the results of the assay in the format with 500 pM activated kallikrein assay.

human activated kallikrein enzyme, sequence (P03952 391-638 limits assumed): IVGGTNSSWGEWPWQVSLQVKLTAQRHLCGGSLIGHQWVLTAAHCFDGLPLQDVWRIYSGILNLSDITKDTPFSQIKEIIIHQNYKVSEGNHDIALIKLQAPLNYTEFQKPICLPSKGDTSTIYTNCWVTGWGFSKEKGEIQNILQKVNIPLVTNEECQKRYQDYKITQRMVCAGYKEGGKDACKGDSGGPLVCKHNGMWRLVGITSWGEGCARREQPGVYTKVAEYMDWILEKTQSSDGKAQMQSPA
human activated kallikrein enzyme, sequence (P03952 20-390 partner limits assumed): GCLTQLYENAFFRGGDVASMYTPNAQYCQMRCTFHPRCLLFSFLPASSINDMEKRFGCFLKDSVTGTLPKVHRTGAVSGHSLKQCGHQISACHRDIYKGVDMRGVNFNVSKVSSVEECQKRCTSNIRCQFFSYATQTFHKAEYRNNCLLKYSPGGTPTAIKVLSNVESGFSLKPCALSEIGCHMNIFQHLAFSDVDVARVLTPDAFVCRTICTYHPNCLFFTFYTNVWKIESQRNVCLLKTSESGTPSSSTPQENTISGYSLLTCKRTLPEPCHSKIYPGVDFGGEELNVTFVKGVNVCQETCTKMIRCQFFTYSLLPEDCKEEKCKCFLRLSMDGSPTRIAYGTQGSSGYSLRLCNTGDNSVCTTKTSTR

SMILES	EC50 [nM]
O=c1cc(C2C[C@@H]2c2cccc(Cl)c2)[nH]c2cc(NCc3cn4cc(C5CC5)ccc4n3)ccc12 (mixture of isomers) [Example 49, rac-2-((1S*,2S*)-2-(3-chlorophenyl)cyclopropyl)-7-(((6-cyclopropylimidazo[1,2-a]pyridin-2-yl)methyl)amino)quinolin-4 (1H)-one]	1 to 10
Cc1ccnc([C@H]2C[C@@H]2c2ccc3ccc(NCc4cn5cc(C6CC6)ccc5n4)cc3n2)n1 (racemic) [Example 19, rac-N-((6-cyclopropylimidazo[1,2-a]pyridin-2-yl)methyl)-2-((1S*,2S*)-2-(4-methylpyrimidin-2-yl)cyclopropyl)quinolin-7-amine]	1 to 10
COc1cc([C@H]2C[C@@H]2c2cccc(Cl)c2)nc2cc(NCc3cn4cc(C5CC5)cc(N5CCCC5=O)c4n3)ccc12 (racemic) [Example 4, rac-1-(2-(((2-((7S*,2S*)-2-(3-chlorophenyl)cyclopropyl)-4-methoxyquinolin-7-yl)amino)methyl)-6-cyclopropylimidazo[1,2-a]pyridin-8-yl)pyrrolidin-2-one]	10 to 100
Cc1ccnc([C@H]2C[C@@H]2c2ccc3ncc(N(C)Cc4cn5cc(C6CC6)cc(N6CC(=O)N(C)C6=O)c5n4)cc3c2)n1 (racemic) [Example 17, rac-1-(6-Cyclopropyl-2-((methyl(6-((1S*,2S*)-2-(4-methylpyrimidin-2-yl)cyclopropyl)quinolin-3-yl)amino)methyl)imidazo[1,2-a]pyridin-8-yl)-3-methylimidazolidine-2,4-dione]	100 to 6500
COc1cc([C@H]2C[C@@H]2c2cccc(Cl)c2)nc2cc(N(Cc3cn4cc(C5CC5)ccc4n3)C(=O)OC(C)(C)C)ccc12 (racemic) [Example 47, rac-tert-butyl (2-((1S*,2S*)-2-(3-chlorophenyl)cyclopropyl)-4-methoxyquinolin-7-yl)((6-cyclopropylimidazo[1,2-a]pyridin-2-yl)methyl)carbamate]	> 6500
O=c1nc([C@H]2C[C@@H]2c2cccc(Cl)c2)[nH]c2cc(NCc3cn4cc(C5CC5)ccc4n3)ccc12 [Example 50, 2-((1S,2S)-2-(3-chlorophenyl)cyclopropyl)-7-(((6-cyclopropylimidazo[1,2-a]pyridin-2-yl)methyl)amino)quinazolin-4 (1H)-one]	10 to 100
COc1cc(OCc2cn3cc(C4CC4)cc(N4CC(=O)N(C)C4=O)c3n2)cc2nc([C@H]3C[C@@H]3c3nccc(C)n3)ccc12 (racemic) [Example 102, rac-1-(6-cyclopropyl-2-(((5-methoxy-2-((1S*,2S*)-2-(4-methylpyrimidin-2-yl)cyclopropyl)quinolin-7-yl)oxy)methyl)imidazo[1,2-a]pyridin-8-yl)-3-methylimidazolidine-2,4-dione]	10 to 100
COc1cc([C@H]2C[C@@H]2c2cccc(Cl)c2)nc2cc(NCc3cn4cc(C5CC5)cc(N5CC(=O)N(C)C5=O)c4n3)ncc12 [Example 18, 1-(2-(((2-((1S,2S)-2-(3-chlorophenyl)cyclopropyl)-4-methoxy-1,6-naphthyridin-7-yl)amino)methyl)-6-cyclopropylimidazo[1,2-a]pyridin-8-yl)-3-methylimidazolidine-2,4-dione]	10 to 100
Cc1ccnc([C@H]2C[C@@H]2c2ccc3cccc(NCc4cn5cc(C6CC6)cc(N6CC(=O)N(C)C6=O)c5n4)c3n2)n1 (racemic) [Example 70, rac-1-(6-cyclopropyl-2-(((2-((1S*,2S*)-2-(4-methylpyrimidin-2-yl)cyclopropyl)quinolin-8-yl)amino)methyl)imidazo[1,2-a]pyridin-8-yl)-3-methylimidazolidine-2,4-dione]	> 6500
Cc1ccnc([C@H]2C[C@@H]2c2cnc3ccc(NCc4cn5cc(C6CC6)cc(N6CC(=O)N(C)C6=O)c5n4)cc3n2)n1 (racemic) [Example 62, rac-1-(6-cyclopropyl-2-(((3-((1S*,2S*)-2-(4-methylpyrimidin-2-yl)cyclopropyl)quinoxalin-6-yl)amino)methyl)imidazo[1,2-a]pyridin-8-yl)-3-methylimidazolidine-2,4-dione]	100 to 6500
Cc1ccnc([C@H]2C[C@@H]2c2cnc3ccc(NCc4cn5cc(C6CC6)cc(N6CC(=O)N(C)C6=O)c5n4)cc3c2)n1 (racemic) [Example 24, rac-1-(6-cyclopropyl-2-(((3-((1S*,2S*)-2-(4-methylpyrimidin-2-yl)cyclopropyl)quinolin-6-yl)amino)methyl)imidazo[1,2-a]pyridin-8-yl)-3-methylimidazolidine-2,4-dione]	100 to 6500
Cc1ccnc([C@H]2C[C@@H]2c2ccc3ncn(Cc4cn5cc(C6CC6)cc(N6CC(=O)N(C)C6=O)c5n4)c3n2)n1 (racemic) [Example 71, rac-1-(6-cyclopropyl-2-((5-((1S*,2S*)-2-(4-methylpyrimidin-2-yl)cyclopropyl)-3H-imidazo[4,5-b]pyridin-3-yl)methyl)imidazo[1,2-a]pyridin-8-yl)-3-methylimidazolidine-2,4-dione]	> 6500
COCc1cc([C@H]2C[C@@H]2c2nccc(C)n2)nc2cc(NCc3cn4cc(C5CC5)cc(N5CC(=O)N(C)C5=O)c4n3)ccc12 (racemic) [Example 76, rac-1-(6-cyclopropyl-2-(((4-(methoxymethyl)-2-((1S*,2S*)-2-(4-methylpyrimidin-2-yl)cyclopropyl)quinolin-7-yl)amino)methyl)imidazo[1,2-a]pyridin-8-yl)-3-methylimidazolidine-2,4-dione]	≤ 1
CN1C(=O)CN(c2cc(C3CC3)cn3cc(CNc4ccc5ccc([C@H]6C[C@@H]6c6cc(Cl)ccc6C#N)nc5c4)nc23)C1=O (racemic) [Example 83, rac-4-chloro-2-((1S*,2S*)-2-(7-(((6-cyclopropyl-8-(3-methyl-2,4-dioxoimidazolidin-1-yl)imidazo[1,2-a]pyridin-2-yl)methyl)amino)quinolin-2-yl)cyclopropyl)benzonitrile]	1 to 10
Cc1ccnc([C@H]2C[C@@H]2C2=NS(=O)(=O)c3ccc(NCc4cn5cc(C6CC6)ccc5n4)cc3N2C)n1 [Example 94, 6-(((6-cyclopropylimidazo[1,2-a]pyridin-2-yl)methyl)amino)-4-methyl-3-((1S,2S)-2-(4-methylpyrimidin-2-yl)cyclopropyl)-4H-benzo[e][1,2,4]thiadiazine 1,1-dioxide]	100 to 6500
Cc1ccnc([C@H]2C[C@@H]2c2ncc3cnc(NCc4cn5cc(C6CC6)cc(N6CC(=O)N(C)C6=O)c5n4)cc3n2)n1 (racemic) [Example 63, rac-1-(6-cyclopropyl-2-(((2-((1S*,2S*)-2-(4-methylpyrimidin-2-yl)cyclopropyl)pyrido[4,3-d]pyrimidin-7-yl)amino)methyl)imidazo[1,2-a]pyridin-8-yl)-3-methylimidazolidine-2,4-dione]	100 to 6500
Cc1ccnc([C@@H]2C[C@H]2c2ccc3ccc(NCc4cn5cc(C6CC6)cc(N6CC(=O)N(C)C6=O)c5n4)cc3n2)n1 (single isomer, unassigned) [Example 58]	10 to 100
COc1cc([C@H]2C[C@@H]2c2cccc(Cl)c2)nc2cc(NCc3cn4cc(C5CC5)ccc4n3)ccc12 (racemic) [Example 48, rac-2-((1S*,2S*)-2-(3-chlorophenyl)cyclopropyl)-N-((6-cyclopropylimidazo[1,2-a]pyridin-2-yl)methyl)-4-methoxyquinolin-7-amine]	10 to 100
Cc1ccnc([C@H]2C[C@@H]2c2ccc3ncc(NCc4cn5cc(C6CC6)cc(N6CC(=O)N(C)C6=O)c5n4)cc3c2)n1 (racemic) [Example 16, rac-1-(6-Cyclopropyl-2-(((6-((1S*,2S*)-2-(4-methylpyrimidin-2-yl)cyclopropyl)quinolin-3-yl)amino)methyl)imidazo[1,2-a]pyridin-8-yl)-3-methylimidazolidine-2,4-dione]	100 to 6500
Cc1ccnc([C@@H]2C[C@H]2C2=NS(=O)(=O)c3ccc(NCc4cn5cc(C6CC6)ccc5n4)cc3N2)n1 (single isomer, unassigned) [Example 66]	10 to 100
Cc1ccnc([C@H]2C[C@@H]2c2cc(C#N)c3ccc(NCc4cn5cc(C6CC6)cc(N6CC(=O)N(C)C6=O)c5n4)cc3n2)n1 (racemic) [Example 73, rac-7-(((6-cyclopropyl-8-(3-methyl-2,4-dioxoimidazolidin-1-yl)imidazo[1,2-a]pyridin-2-yl)methyl)amino)-2-((1S*,2S*)-2-(4-methylpyrimidin-2-yl)cyclopropyl)quinoline-4-carbonitrile]	10 to 100
Cc1ccnc([C@H]2C[C@@H]2c2ccc3ccc(NCc4cn5cc(C6CC6)cc(N6C(=O)N(C)C(=O)C6C6(O)COC6)c5n4)cc3n2)n1 (relative stereo) [Example 90, rac-1-(6-cyclopropyl-2-(((2-((1S*,2S*)-2-(4-methylpyrimidin-2-yl)cyclopropyl)quinolin-7-yl)amino)methyl)imidazo[1,2-a]pyridin-8-yl)-5-(3-hydroxyoxetan-3-yl)-3-methylimidazolidine-2,4-dione]	1 to 10
Cc1ccnc([C@H]2C[C@@H]2c2ccc3c(ncn3Cc3cn4cc(C5CC5)cc(N5CC(=O)N(C)C5=O)c4n3)n2)n1 (racemic) [Example 72, rac-1-(6-cyclopropyl-2-((5-((1S*,2S*)-2-(4-methylpyrimidin-2-yl)cyclopropyl)-1H-imidazo[4,5-b]pyridin-1-yl)methyl)imidazo[1,2-a]pyridin-8-yl)-3-methylimidazolidine-2,4-dione]	100 to 6500
